The record followed here is PubChem BioAssay AID200 (DTP/NCI, 2004).

This assay concerns B6C3F1 mice, B16 melanoma ip, median survival T/C. In words: NCI In Vivo Anticancer Drug Screen. Data for tumor model B16 Melanoma (intraperitoneal) in B6C3F1 mice. As to conditions: endpoint: median survival time, schedule: Q01DX009 (ip), higher = longer survival. The essentials: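 Antitumor effect was judged in mice with transplanted tumors by dividing the treated group's survival measure by that of vehicle controls.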

The mark [1] stands for this setting: dose: 3.13 mg/kg/injection, vehicle: saline with Tween-80.
Setting [2] is: dose: 6.25 mg/kg/injection, vehicle: saline with Tween-80.
The mark [3] stands for this setting: dose: 12.5 mg/kg/injection, vehicle: saline with Tween-80.
Where [4] appears, read: dose: 50.0 mg/kg/injection, vehicle: saline with Tween-80.
The mark [5] stands for this setting: dose: 100.0 mg/kg/injection, vehicle: saline with Tween-80.
The mark [6] stands for this setting: dose: 200.0 mg/kg/injection, vehicle: saline with Tween-80.
Setting [7] is: dose: 12.5 mg/kg/injection, vehicle: saline.
Setting [8] is: dose: 25.0 mg/kg/injection, vehicle: saline.
The mark [9] stands for this setting: dose: 50.0 mg/kg/injection, vehicle: saline.
[10] abbreviates: dose: 3.12 mg/kg/injection, vehicle: saline with Tween-80.
The mark [11] stands for this setting: dose: 25.0 mg/kg/injection, vehicle: saline with Tween-80.

Several values for one entry are separate records, joined by “and”; a condition that tells them apart may be missing. Equal entries are not always repeated. Inconclusive results and toxic doses are left out.

`N#Cc1ccc(NN=O)nc1`: the T/C was 102 % of control (dose: 3.12 mg/kg/injection, vehicle: water); 119 % of control (dose: 3.13 mg/kg/injection, vehicle: water); 117 % of control (dose: 4.5 mg/kg/injection, vehicle: saline); 113 % of control and 122 % of control (dose: 6.25 mg/kg/injection, vehicle: water); 108 % of control (dose: 7.5 mg/kg/injection, vehicle: saline); 123 % of control (dose: 20.83 mg/kg/injection, vehicle: saline). Also, for the setting “dose: 34.72 mg/kg/injection, vehicle: saline”, the T/C was 120 % of control.
With `Cn1cnc([N+](=O)[O-])c1Sc1nc(N)nc2c1ncn2C1OC(CO)C(O)C1O` (centres undefined), the T/C was 116 % of control (dose: 3.12 mg/kg/injection, vehicle: suspension in saline); 111 % of control under setting [1]; 97 % of control under setting [2]; 117 % of control (dose: 6.25 mg/kg/injection, vehicle: suspension in saline); 94 % of control under setting [3]; 93 % of control (dose: 12.5 mg/kg/injection, vehicle: suspension in saline).
For `Cc1nc2ccccc2c(C(=O)NO)[n+]1[O-]`, the T/C was 100 % of control (dose: 3.13 micrograms/kg/injection, vehicle: other); 104 % of control (dose: 6.25 micrograms/kg/injection, vehicle: other); 122 % of control (dose: 12.5 micrograms/kg/injection, vehicle: other); 110 % of control (dose: 25.0 micrograms/kg/injection, vehicle: other).
With `COCCCNC1=C(C#N)C(=O)NC(c2cccc([N+](=O)[O-])c2)S1` (centres undefined), the T/C by setting is: under setting [1], 112 % of control and 98 % of control; under setting [2], 91 % of control and 96 % of control; under setting [4], 94 % of control and 101 % of control (2×); under setting [5], 111 % of control and 98 % of control; under setting [6], 111 % of control; (dose: 400.0 mg/kg/injection, vehicle: saline with Tween-80) 87 % of control.
For `O=c1[nH]c(=O)c2nc(-c3cccnc3)cnc2[nH]1`, the T/C was 92 % of control under setting [7]; 98 % of control under setting [8]; 95 % of control under setting [9]; 92 % of control (dose: 100.0 mg/kg/injection, vehicle: saline).
On to `CS(=O)(=O)OCCN(CCOS(C)(=O)=O)c1ccc(C=O)cc1`, for which the T/C is, setting by setting: under setting [10], 151 % of control; under setting [2], 162 % of control; under setting [3], 186 % of control.
Take `Cn1c(N)c(N=Nc2ccccc2Cl)c(=O)n(C)c1=O`: the T/C is 92 % of control under setting [2]; 101 % of control under setting [3]; 89 % of control under setting [11]; 92 % of control and 104 % of control under setting [4]; 104 % of control under setting [5].
As to `Nc1ccc(OCCCc2c(-c3ccccc3)nc(N)[nH]c2=O)cc1`, the T/C by setting is: under setting [11], 121 % of control; under setting [4], 102 % of control; under setting [5], 118 % of control; under setting [6], 96 % of control.
For the compound `CN(C)CCNc1ccc([N+](=O)[O-])c2sc3ccccc3c(=O)c12`, the T/C under setting [2] is 113 % of control; the T/C (dose: 6.25 mg/kg/injection, vehicle: saline) is 105 % of control; the T/C under setting [3] was 117 % of control and 102 % of control; the T/C under setting [7] was 101 % of control; the T/C under setting [11] was 118 % of control; the T/C under setting [8] was 103 % of control. Further, the T/C under setting [9] was 106 % of control.
Turning to `C=C(C)[C@@H]1CCc2c(O)c(O)c(=O)cc(C)c2C1`, the T/C is, setting by setting: (dose: 3.12 mg/kg/injection, vehicle: Klucel (hydroxypropylcellulose) (HPC)) 100 % of control; under setting [10], 100 % of control; (dose: 6.25 mg/kg/injection, vehicle: Klucel (hydroxypropylcellulose) (HPC)) 99 % of control; under setting [2], 100 % of control; (dose: 12.5 mg/kg/injection, vehicle: Klucel (hydroxypropylcellulose) (HPC)) 104 % of control; under setting [3], 95 % of control. For the same compound, the T/C is 100 % of control under setting [7]; 112 % of control (dose: 25.0 mg/kg/injection, vehicle: Klucel (hydroxypropylcellulose) (HPC)); 102 % of control under setting [11]; 115 % of control under setting [8]; 99 % of control (dose: 50.0 mg/kg/injection, vehicle: Klucel (hydroxypropylcellulose) (HPC)); 110 % of control under setting [4]. Further, the T/C (dose: 100.0 mg/kg/injection, vehicle: Klucel (hydroxypropylcellulose) (HPC)) is 102 % of control.
As to `C=C(C)C12OC3(CCCCCCCCC)OC1C1C4OC4(COC(=O)CCCCCCCCCCCCCCC)C(O)C4(O)C(=O)C(C)=CC4C1(O3)C(C)C2OC(=O)c1ccccc1` (centres undefined), the T/C (dose: 5.0 micrograms/kg/injection, vehicle: saline + alcohol) was 96 % of control; the T/C (dose: 10.0 micrograms/kg/injection, vehicle: saline + alcohol) was 99 % of control; the T/C (dose: 20.0 micrograms/kg/injection, vehicle: saline + alcohol) is 86 % of control; the T/C (dose: 40.0 micrograms/kg/injection, vehicle: saline + alcohol) was 88 % of control.
For the compound `C/C=C1\C(=O)O[C@@]23C=C[C@H]4C(C(=O)OC)=CO[C@@H](O[C@H]12)[C@H]43`, the T/C is 101 % of control (dose: 3.75 mg/kg/injection, vehicle: Klucel (hydroxypropylcellulose) (HPC)); 95 % of control (dose: 7.5 mg/kg/injection, vehicle: Klucel (hydroxypropylcellulose) (HPC)); 95 % of control (dose: 15.0 mg/kg/injection, vehicle: Klucel (hydroxypropylcellulose) (HPC)).
Take `Brc1ccc(C[N+]23CN4CN(CN(C4)C2)C3)cc1`: the T/C is 100 % of control under setting [3]; 98 % of control under setting [11]; 101 % of control under setting [4]; 108 % of control under setting [5]; 112 % of control under setting [6].
As to `O=C1C2CC(Cl)C(SSC3CC4C(=O)N(SC(Cl)(Cl)C(Cl)Cl)C(=O)C4CC3Cl)CC2C(=O)N1SC(Cl)(Cl)C(Cl)Cl` (centres undefined), the T/C by setting is: under setting [11], 98 % of control; under setting [4], 104 % of control; under setting [5], 98 % of control.
